# Test results taken from patent publication US8092974B2, “Production method of toner for developing electrostatic image” (Zeon Corporation, priority 2006, dated 2012).
# Assay: Average number of small diameter microparticles per colored resin particle (SEM count after polymerization)
# Conditions: aqueous dispersion after polymerization process; SEM 5,000 magnification, 25 particles
# Description: The average number of small diameter microparticles per colored resin particle is a value calculated in such a manner that aqueous dispersion containing colored resin particles after polymerization process is collected and prepared to be a sample for measurement with a scanning electron microscopy (SEM); the prepared sample is photographed at 5,000 magnification in five fields of view by means of the scanning electron microscopy; five colored resin particles are randomly selected in each image; the number of small diameter microparticles observed on the surface of 25 colored resin particles in total is counted; and the average number of small microparticles per colored resin is calculated therefrom.
# The number of small diameter microparticles per colored resin particle can be measured by means of a commercially available scanning electron microscopy. For example, it can be measured by means of a field emission scanning electron microscopy (product name: S-4700; manufactured by: Hitachi, Ltd.). […]
# The sample was randomly photographed in five fields of view, and five colored resin particles were randomly selected in each image to count the number of small diameter microparticles observed on the surface of 25 colored resin particles in total. The average number of small diameter microparticles per colored resin particle was calculated therefrom.
structure (smiles),measurement,value
"Oc1ccc(O)cc1 [A, Hydroquinone]",Average number of small diameter microparticles per colored resin particle,weak
